According to patent US20120167671A1, “METHOD AND APPARATUS FOR TESTING TRANSDERMAL MEDICAMENTS” (EGIS GYOGYSZERGYAR NYILVANOSAN MUKODO RESZVENYTARSASAG, priority 2009, published 2012):

Assay: Membrane penetration testing of piroxicam-containing cream, human skin membrane, test series (II)
Assay type: in vitro ADME
Conditions: 1% piroxicam cream, 34° C., no air flow
Protocol: In the test, the acceptor phase comprises 0.9 weight % sodium chloride solution. The flow rate of the acceptor phase is 0.3 ml/min. During the first test series (I), a cellophane membrane, during the second test series (II), a human skin membrane was used. Temperature of the cell was kept at 34° C. During both test series, the cell was exposed to natural sunlight. No air flow was applied. The membrane was allowed to stabilize for 60 minutes. After the stabilization period, 300 to 400 mg of test preparation measured by analytical precision are applied to the membrane homogeneously in 2-3 seconds. The flow of the acceptor phase is resumed and effluent fractions for periods of 30 minute each are collected. […] The high-performance liquid chromatographic analysis is carried out using external standard method in a reversed phase system. The separation is carried out using a Nucleosil C18 (250 mm×4.6 mm i.d.) column and a buffer-acetonitrile-methanol (1000:660:340, v/v/v) mobile phase. The separation is performed at the temperature of 40° C. Flow rate of the mobile phase is 1.0 ml/min. Detection is carried out by ultraviolet photodiode array detector in the wavelength range of 250 to 450 nm.

CN1C(C(=O)Nc2ccccn2)=C(O)c2ccccc2S1(=O)=O [piroxicam]
Cumulative amount of dissolved piroxicam, % Series (II) (fraction 1, 0-30 min): 0.00%
Cumulative amount of dissolved piroxicam, % Series (II) (fraction 2, 30-60 min): 0.00%
Cumulative amount of dissolved piroxicam, % Series (II) (fraction 3, 60-90 min): 0.00%
Cumulative amount of dissolved piroxicam, % Series (II) (fraction 4, 90-120 min): 0.00%
Cumulative amount of dissolved piroxicam, % Series (II) (fraction 5, 120-150 min): 0.01%
Cumulative amount of dissolved piroxicam, % Series (II) (fraction 6, 150-180 min): 0.02%
Cumulative amount of dissolved piroxicam, % Series (II) (fraction 7, 180-210 min): 0.02%
Cumulative amount of dissolved piroxicam, % Series (II) (fraction 8, 210-240 min): 0.03%
Cumulative amount of dissolved piroxicam, % Series (II) (fraction 9, 240-270 min): 0.04%
Cumulative amount of dissolved piroxicam, % Series (II) (fraction 10, 270-300 min): 0.05%
Cumulative amount of dissolved piroxicam, % Series (II) (fraction 11, 300-330 min): 0.05%
Cumulative amount of dissolved piroxicam, % Series (II) (fraction 12, 330-360 min): 0.06%
